Format in all cases: biochemical
Test [1] deals with cholesterol oxidase (CHO-CE). The test can be described thus: Acceleration of cholesterol detection reaction with small amount of cholesterol oxidase (Example 13). The settings on record: 0.04% (w/v) compound, 2.31 U/ml CHO-CE; for effect of accelerating cholesterol detection reaction: versus not added; for Degree of progression of reaction (%) after 7.5 minutes / Degree of progression of reaction (%) after 10 minutes: cholesterol detection reaction, ΔA/ΔA100%; for Degree of progression of reaction (%) after 7.5 minutes: 2.5 minutes after addition of second reagent, not added: 65; for Degree of progression of reaction (%) after 10 minutes: 5 minutes after addition of second reagent, not added: 88. On the procedure:
Next, in this Example, the degree of acceleration of cholesterol detection reaction by the compound of the present invention was determined using a small amount of cholesterol oxidase.
A reagent for cholesterol measurement having the following composition was prepared, and the measurement of cholesterol was carried out using Bio Majesty JCA-BM […] (manufactured by JEOL Ltd.).
32 μM cholesterol (manufactured by Wako Pure Chemical Industries, Ltd.)
5.0% (v/v) Triton X-100 (manufactured by Wako Pure Chemical Industries, Ltd.)
4.0% (w/v) sodium cholate (manufactured by Wako Pure Chemical Industries, Ltd.)
30 mM MOPS-NaOH buffer solution, pH 7.0
(§1) 10 U/ml peroxidase PEO-301 (Toyobo Co., Ltd.)
(§2) 0.023 mM 10-(carboxymethylaminocarbonyl)-3,7-bis(dimethylamino)phenothiazine sodium (DA-67, manufactured by Wako Pure Chemical Industries, Ltd.)
(§3) 0.04% (w/v) of the compound of Comparative Example 2, any one compound of the present invention, or compound-free (Comparative Example 1) ion-exchange water as shown in Table 1
10 mM MOPS-NaOH buffer solution, pH 7.0
2.31 U/ml CHO-CE (manufactured by Kikkoman Biochemifa Company)
8 μl of the sample was added to 96 μl of the first reagent-E, and the mixture was incubated at 37° C. for 5 minutes. Then, 24 μl of the second reagent-J was added thereto, and the quantitative reaction of hydrogen peroxide resulting from the oxidation of cholesterol was allowed to progress at 37° C. for 5 minutes. The absorbance (A694 and A751) of the reaction solution for light at wavelengths of 694 nm and 751 nm was measured over time for 10 minutes after the mixing of the sample with the first reagent-E to determine the value of subtraction of A751 from A694, i.e., the value A694/751. Subsequently, ΔA was calculated by subtracting, from A694/751, the value of (104/128) times A694/751 4.8 minutes after the mixing of the sample with the first reagent-E. Incidentally, 5 minutes after the mixing of the sample with the first reagent-E represents the time immediately before the addition of the second reagent-J.
Next, ΔA calculated in this Example was divided by ΔA100% defined in Example 12 to calculate the degree of progression of cholesterol detection reaction. The degree of progression of cholesterol detection reaction 7.5 and 10 minutes after the mixing of the sample with the first reagent-E (in other words, 2.5 and 5 minutes after the addition of the second reagent-J) is shown in Table 10.

Test [2] deals with sarcosine oxidase (SOD-TE). The test can be described thus: Sarcosine detection reaction completed with excess sarcosine oxidase (Example 10). The settings on record: 0.04% (w/v) compound, 123 U/ml SOD-TE (excess), 32 μM sarcosine, pH 8.0, 37° C.; for ΔA9 min: change in A694-A751 9 minutes after mixing; for ΔA10 min: change in A694-A751 10 minutes after mixing, defined as ΔA100%. On the procedure: In this Example, the amount of change in absorbance is determined when the detection reaction of the substrate sarcosine (N-methylglycine) was completed using an excess amount of sarcosine oxidase (SOD-TE), which is an oxidase.
A reagent for sarcosine measurement having the following composition was prepared, and the measurement of sarcosine using sarcosine oxidase was carried out using Bio Majesty JCA-BM 1650 (manufactured by JEOL Ltd.).
(§4) 32 μM sarcosine (manufactured by Wako Pure Chemical Industries, Ltd.)
(§5) 30 mM MOPS-NaOH buffer solution, pH 8.0
(§6) 0.2% (v/v) NP-10 (manufactured by HELM)
as §1, §2, §3
(§7) 10 mM MOPS-NaOH buffer solution, pH 8.0
123 U/ml SOD-TE (manufactured by Kikkoman Biochemifa Company)
8 μl of the sample was added to 96 μl of the first reagent-D, and the mixture was incubated at 37° C. for 5 minutes. Then, 24 μl of the second reagent-G was added thereto, and the quantitative reaction of hydrogen peroxide resulting from the oxidation of sarcosine was allowed to progress at 37° C. for 5 minutes. The absorbance (A694 and A751) of the reaction solution for light at wavelengths of 694 nm and 751 nm was measured over time for 10 minutes after the mixing of the sample with the first reagent-D to determine the value of subtraction of A751 from A694, i.e., the value A694/751. Subsequently, ΔA was calculated by subtracting, from A694/751, the value of (104/128) times […] 4.8 minutes after the mixing of the sample with the first reagent-D. Incidentally, 4.8 minutes after the mixing of the sample with the first reagent-D represents the time immediately before the addition of the second reagent-G. ΔA 9 minutes and 10 minutes after the mixing of the diluted sample with the first reagent-D (ΔA9min and ΔA10min) are shown in Table 7.
In other words, it can be recognized that the quantitative reaction of sarcosine, i.e., the quantitative reaction of hydrogen peroxide resulting from the oxidation of sarcosine, was completed in 10 minutes after the mixing of the diluted sample with the first reagent-D. Accordingly, in Examples 10 and 11, ΔA10min in each Comparative Example or the present invention was defined as ΔA when 100% of the quantitative reaction of sarcosine progressed under each condition (ΔA100%).

The test system of test [3] is sarcosine oxidase (SOD-TE). Kind of test: Acceleration of sarcosine detection reaction with small amount of sarcosine oxidase (Example 11). Particulars: 0.04% (w/v) compound, 12.3 U/ml SOD-TE; for effect of accelerating sarcosine detection reaction: versus not added; for Degree of progression of reaction (%) after 7.5 minutes / Degree of progression of reaction (%) after 10 minutes: sarcosine detection reaction, ΔA/ΔA100%; for Degree of progression of reaction (%) after 7.5 minutes: 2.5 minutes after addition of second reagent, not added: 60; for Degree of progression of reaction (%) after 10 minutes: 5 minutes after addition of second reagent, not added: 82. The method, then:
Next, in this Example, the degree of acceleration of sarcosine detection reaction by the compound of the present invention was determined using a small amount of sarcosine oxidase.
A reagent for sarcosine measurement having the following composition was prepared, and the measurement of sarcosine was carried out using Bio Majesty JCA-BM1650 (manufactured by JEOL Ltd.).
as §4, §5, §6, §1
0.023 mM 10-(carboxymethylaminocarbonyl)-3,7-bis(dimethylamino)phenothiazine sodium
(DA-67, manufactured by Wako Pure Chemical Industries, Ltd.)
as §3, §7
12.3 U/ml SOD-TE (manufactured by Kikkoman Biochemifa Company)
8 μl of the sample was added to […] of the first reagent-D, and the mixture was incubated at 37° C. for 5 minutes. Then, 24 μl of the second reagent-H was added thereto, and the quantitative reaction of hydrogen peroxide resulting from the oxidation of sarcosine was allowed to progress at 37° C. for 5 minutes. The absorbance (A694 and A751) of the reaction solution for light at wavelengths of 694 nm and 751 nm was measured over time for 10 minutes after the mixing of the sample with the first reagent-D to determine the value of subtraction of A751 from A694, i.e., the value A694/751. Subsequently, ΔA was calculated by subtracting, from A694/751, the value of (104/128) times A694/751 4.8 minutes after the mixing of the sample with the first reagent-D. Incidentally, 5 minutes after the mixing of the sample with the first reagent-D represents the time immediately before the addition of the second reagent-H.
Next, ΔA calculated in this Example was divided by ΔA100% defined in Example 10 to calculate the degree of progression of sarcosine detection reaction. The degree of progression of sarcosine detection reaction 7.5 and 10 minutes after the mixing of the sample with the first reagent-D (in other words, 2.5 and 5 minutes after the addition of the second reagent-H) is shown in Table 8.

Turning to `Cc1nn(-c2cc(S(=O)(=O)[O-])ccc2Cl)c(O)c1N=Nc1ccccc1.[Na+]` [Acid Yellow 34], in test [1], the “effect of accelerating cholesterol detection reaction” value is reported as “effect of accelerating cholesterol detection reaction”, the “Degree of progression of reaction (%) after 7.5 minutes” value (“Degree … (%) after 7.5 minutes” for short) was determined as 72% and the “Degree of progression of reaction (%) after 10 minutes” value (shortened to “Degree … (%) after 10 minutes”) was determined as 92%.
With `COc1cc(N=Nc2ccc(N)cc2)c(C)cc1N` [Disperse Diazo Black 3BF], in test [2], the ΔA9 min was found to be 0.156 and the ΔA10 min amounted to 0.156. In test [3], the “effect of accelerating sarcosine detection reaction” value is reported as “effect of accelerating sarcosine detection reaction”, the “Degree … (%) after 7.5 minutes” value is reported as 63% and the “Degree … (%) after 10 minutes” value is listed as 84%. In test [1], the “effect of accelerating cholesterol detection reaction” value is on record as “effect of accelerating cholesterol detection reaction”, the “Degree … (%) after 7.5 minutes” value came to 66% and the “Degree … (%) after 10 minutes” value is 97%.
As for Xylene Fast Yellow 2G, in test [2], the ΔA9 min turned out to be 0.158 and the ΔA10 min is 0.158. For the same molecule, in test [3], the “effect of accelerating sarcosine detection reaction” value was “effect of accelerating sarcosine detection reaction”, the “Degree … (%) after 7.5 minutes” value turned out to be 64% and the “Degree … (%) after 10 minutes” value was 86%.
In the case of `O=C([O-])c1cc(N=Nc2cccc([N+](=O)[O-])c2)ccc1O.[Na+]` [Alizarin Yellow GG], in test [2], the ΔA9 min was found to be 0.197 and the ΔA10 min amounted to 0.197. Further, in test [3], the “effect of accelerating sarcosine detection reaction” value is recorded as “effect of accelerating sarcosine detection reaction”, the “Degree … (%) after 7.5 minutes” value is on record as 64% and the “Degree … (%) after 10 minutes” value came to 86%. In test [1], the “effect of accelerating cholesterol detection reaction” value is “effect of accelerating cholesterol detection reaction”, the “Degree … (%) after 7.5 minutes” value was 73% and the “Degree … (%) after 10 minutes” value is 93%.
On to `O=C(O)c1cc(N=Nc2ccc3cc(S(=O)(=O)O)ccc3c2)ccc1O.[Na]` [Chrome Yellow], for which, in test [2], the ΔA9 min was determined as 0.186 and the ΔA10 min is 0.186. In addition, in test [3], the “effect of accelerating sarcosine detection reaction” value is reported as “effect of accelerating sarcosine detection reaction”, the “Degree … (%) after 7.5 minutes” value is reported as 65% and the “Degree … (%) after 10 minutes” value turned out to be 87%. In test [1], the “effect of accelerating cholesterol detection reaction” value is on record as “effect of accelerating cholesterol detection reaction”, the “Degree … (%) after 7.5 minutes” value is 67% and the “Degree … (%) after 10 minutes” value was 91%.
For the molecule Acid Red 151, in test [2], the ΔA9 min was determined as 0.212 and the ΔA10 min worked out at 0.212. Besides, in test [3], the “effect of accelerating sarcosine detection reaction” value is “effect of accelerating sarcosine detection reaction”, the “Degree … (%) after 7.5 minutes” value is 68% and the “Degree … (%) after 10 minutes” value is 89%. For the same molecule, in test [1], the “effect of accelerating cholesterol detection reaction” value is “effect of accelerating cholesterol detection reaction”, the “Degree … (%) after 7.5 minutes” value was 74% and the “Degree … (%) after 10 minutes” value came out at 94%.
In test [2], `O=C([O-])c1cc(N=Nc2ccc([N+](=O)[O-])cc2)ccc1O.[Na+]` [Mordant Orange 1] displayed a ΔA9 min of 0.327 and a ΔA10 min of 0.328. Also, in test [3], the “effect of accelerating sarcosine detection reaction” value is “effect of accelerating sarcosine detection reaction”, the “Degree … (%) after 7.5 minutes” value turned out to be 67% and the “Degree … (%) after 10 minutes” value is given as 88%. In test [1], the “effect of accelerating cholesterol detection reaction” value is given as “effect of accelerating cholesterol detection reaction”, the “Degree … (%) after 7.5 minutes” value is 74% and the “Degree … (%) after 10 minutes” value is 94%.
For `COc1cc(N=Nc2cccc(S(=O)(=O)[O-])c2)ccc1NC(=O)Nc1ccc(N=Nc2ccc(O)c(C(=O)[O-])c2)cc1.[Na+].[Na+]` [Direct Yellow 44], in test [2], the ΔA9 min came to 0.315 and the ΔA10 min was 0.315. In addition, in test [3], the “effect of accelerating sarcosine detection reaction” value was “effect of accelerating sarcosine detection reaction”, the “Degree … (%) after 7.5 minutes” value was found to be 68% and the “Degree … (%) after 10 minutes” value came to 89%.
For the molecule `O=S(=O)([O-])c1cccc(N=Nc2ccc(Nc3ccccc3)cc2)c1.[Na+]` [Acid Yellow 36], in test [1], the “effect of accelerating cholesterol detection reaction” value is “effect of accelerating cholesterol detection reaction”, the “Degree … (%) after 7.5 minutes” value is listed as 73% and the “Degree … (%) after 10 minutes” value amounted to 92%.
